# Test system: HCT116 tumors
# Test: Antitumor effect of oral α-methyl-DL-tyrosine in athymic nude mice bearing HCT116 tumors
# Format: in vivo
# Experimental: A study was conducted to evaluate the antitumor effect of an oral formulations of α-methyl-DL-tyrosine in athymic nude mice bearing HCT116 tumors. Athymic nude mice (female, 6-7 weeks old) were purchased from Charles River Laboratories, USA. The mice were housed in a ventilated cage rack with HEAP filter system, with 12-hour light cycle at 21-24° C. (70-75° F.) and 40-60% humidity. The mice were fed with Rodent Diet 5001 (Lab Diet) consisting of: >23% protein; >4.5% fat; and >6% fiber. The mice were allowed free access to water ([…] water, 1 ppm CI). The mice were acclimated for 5 days prior to the implantation of HCT116 cells at 1 million cells per mouse in 100 ul of 1×PBS containing 50% Matrigel. At the completion of study, mice were euthanized with isoflurane followed by inhalation of carbon dioxide (CO2). The HCT116 cells (human colon carcinoma) were purchased from ATCC, and expanded to sufficient number of cells for tumor cell implantation. Solutions of α-methyl-DL-tyrosine at 16.2 mg/ml, 32.4 mg/ml, and 64.8 mg/ml in water were prepared After an acclimation period of 5 days, fifty (50) athymic nude female mice were inoculated in the thigh/flank area with 1 million of HCT116 cells suspended in 100 μl 1×PBS containing 50% Matrigel. Beginning at Day 6 post cell inoculation, the tumor volume was measured every day until the average tumor volume reached about 100 mm^3 (Tumor Volume=length×width×width×0.5). Forty-four (44) out of the fifty (50) mice within the range of 50-150 mm^3 were selected and randomly grouped into 4 groups (n=11): a control group treated with water ([…]), and 324 mg/kg (Group 4). The HCT-116 tumor bearing mice were oral gavage (PO) dosed daily at 5 ml/kg with water (Group 1), α-methyl-DL-tyrosine at 81 mg/kg (Group 2), α-methyl-DL-tyrosine at 162 mg/kg (Group 3), and α-methyl-DL-tyrosine at 324 mg/kg (Group 4) for 28 days. Clinical observations were made daily; tumor volume was measured every three to four days prior to dosing until the completion of study or when individual tumor volume exceeds 2000 mm^3.
compound,measurement,setting,value
CC(N)(Cc1ccc(O)cc1)C(=O)O (racemic) [α-methyl-DL-tyrosine],tumor growth inhibition,"324 mg/kg daily PO, p<0.05, t-test",statistically significant
same,tumor inhibition,"324 mg/kg daily, Day 28",non-significant
same,HCT-116 Tumor volume (group average),"G2, 162 mg/kg [sic] PO daily, n = 11, Day 0 post 1st dosing",63.5 mm^3
same,HCT-116 Tumor volume (group average),"G2, 162 mg/kg [sic] PO daily, n = 11, Day 4 post 1st dosing",112.5 mm^3
same,HCT-116 Tumor volume (group average),"G2, 162 mg/kg [sic] PO daily, n = 11, Day 7 post 1st dosing",215.3 mm^3
same,HCT-116 Tumor volume (group average),"G2, 162 mg/kg [sic] PO daily, n = 11, Day 11 post 1st dosing",373.6 mm^3
same,HCT-116 Tumor volume (group average),"G2, 162 mg/kg [sic] PO daily, n = 11, Day 14 post 1st dosing",643.5 mm^3
same,HCT-116 Tumor volume (group average),"G2, 162 mg/kg [sic] PO daily, n = 11, Day 18 post 1st dosing",1022.3 mm^3
same,HCT-116 Tumor volume (group average),"G2, 162 mg/kg [sic] PO daily, n = 11, Day 21 post 1st dosing",1405.9 mm^3
same,HCT-116 Tumor volume (group average),"G2, 162 mg/kg [sic] PO daily, n = 11, Day 25 post 1st dosing",1592.4 mm^3
same,HCT-116 Tumor volume (group average),"G2, 162 mg/kg [sic] PO daily, n = 11, Day 28 post 1st dosing",1718.8 mm^3
same,HCT-116 Tumor volume (group average),"G3, 81 mg/kg [sic] PO daily, n = 11, Day 0 post 1st dosing",64.3 mm^3
same,HCT-116 Tumor volume (group average),"G3, 81 mg/kg [sic] PO daily, n = 11, Day 4 post 1st dosing",106.0 mm^3
same,HCT-116 Tumor volume (group average),"G3, 81 mg/kg [sic] PO daily, n = 11, Day 7 post 1st dosing",214.6 mm^3
same,HCT-116 Tumor volume (group average),"G3, 81 mg/kg [sic] PO daily, n = 11, Day 11 post 1st dosing",391.4 mm^3
same,HCT-116 Tumor volume (group average),"G3, 81 mg/kg [sic] PO daily, n = 11, Day 14 post 1st dosing",676.6 mm^3
same,HCT-116 Tumor volume (group average),"G3, 81 mg/kg [sic] PO daily, n = 11, Day 18 post 1st dosing",1210.3 mm^3
same,HCT-116 Tumor volume (group average),"G3, 81 mg/kg [sic] PO daily, n = 11, Day 21 post 1st dosing",1680.1 mm^3
same,HCT-116 Tumor volume (group average),"G3, 81 mg/kg [sic] PO daily, n = 11, Day 25 post 1st dosing",1868.0 mm^3
same,HCT-116 Tumor volume (group average),"G3, 81 mg/kg [sic] PO daily, n = 11, Day 28 post 1st dosing",1979.2 mm^3
same,HCT-116 Tumor volume (group average),"G4, 324 mg/kg PO daily, n = 11, Day 0 post 1st dosing",64.2 mm^3
same,HCT-116 Tumor volume (group average),"G4, 324 mg/kg PO daily, n = 11, Day 4 post 1st dosing",92.9 mm^3
same,HCT-116 Tumor volume (group average),"G4, 324 mg/kg PO daily, n = 11, Day 7 post 1st dosing",172.3 mm^3
same,HCT-116 Tumor volume (group average),"G4, 324 mg/kg PO daily, n = 11, Day 11 post 1st dosing",310.5 mm^3
same,HCT-116 Tumor volume (group average),"G4, 324 mg/kg PO daily, n = 11, Day 14 post 1st dosing",506.3 mm^3
same,HCT-116 Tumor volume (group average),"G4, 324 mg/kg PO daily, n = 11, Day 18 post 1st dosing",654.9 mm^3
same,HCT-116 Tumor volume (group average),"G4, 324 mg/kg PO daily, n = 11, Day 21 post 1st dosing",890.6 mm^3
same,HCT-116 Tumor volume (group average),"G4, 324 mg/kg PO daily, n = 11, Day 25 post 1st dosing",1090.1 mm^3
same,HCT-116 Tumor volume (group average),"G4, 324 mg/kg PO daily, n = 11, Day 28 post 1st dosing",1325.7 mm^3
same,"maximum anti-tumor efficacy, reduction in tumor volume",observed on Day 22 (so in the source),48%
